Like-named read-outs stand apart in the source and are kept apart here.
Assay: CD69 Whole Blood Assay (CD69 Hu Blood FACS)
Assay type: cell-based, human
Details: Lymphocyte, human whole blood, anti-IgM activated B lymphocytes, FACS, IC70
Summary of the method: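 Compounds tested for blocking B-cell CD69 induction by flow cytometry in human whole blood, with activation via anti-human IgM goat F(ab′)2 crosslinking of surface IgM.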

[1] = Table 2 (unit inferred), read-out: CD69 Hu Blood FACS (IC70)
[2] = Table 1, read-out: CD69 Hu Blood FACS IC70

Compound | IC70 [1] [µM] | IC70 [2] [µM]
COC1CN(c2ccc(Nc3cc(-c4ccnc(N5CCn6c(cc7c6CC(C)(C)C7)C5=O)c4CO)cn(C)c3=O)nc2)C1 [Example 323, 3-[3-(hydroxymethyl)-4-[5-[[5-(3-methoxyazetidin-1-yl)-2-pyridyl]amino]-1-methyl-6-oxo-3-pyridyl]-2-pyridyl]-7,7-dimethyl-1,2,6,8-tetrahydrocyclopenta[3,4]pyrrolo[3,5-b]pyrazin-4-one] | 0.279 | 
Cn1cc(-c2ccnc(N3CCn4c(cc5c4CCCC5)C3=O)c2CO)cc(Nc2cc3n(n2)CCOC3)c1=O [Example 129, 2-(4-(5-(6,7-Dihydro-4H-pyrazolo[5,1-c][1,4]oxazin-2-ylamino)-1-methyl-6-oxo-1,6-dihydropyridin-3-yl)-3-(hydroxymethyl)pyridin-2-yl)-3,4,6,7,8,9-hexahydropyrazino[1,2-a]indol-1(2H)-one] |  | 0.0917
Cn1cc(-c2ccnc(-n3ncc4c5c(sc4c3=O)CCCC5)c2CO)cc(Nc2ccncn2)c1=O [Example 182, 3-[3′-Hydroxymethyl-1-methyl-6-oxo-5-(pyrimidin-4-ylamino)-1,6-dihydro-[3,4′]bipyridinyl-2′-yl]-6,7,8,9-tetrahydro-3H-benzo[4,5]thieno[2,3-d]pyridazin-4-one] |  | 0.813
C[C@H]1CN(C2COC2)CCN1c1ccc(Nc2cc(-c3ccnc(N4CCn5c(cc6c5CC(C)(C)C6)C4=O)c3CO)cn(C)c2=O)nc1 [Example 130, (3 S)-10-[4-[1-methyl-5-({5-[2-methyl 4-(oxetan-3-yl)piperazin-1-yl]pyridine-2-yl}amino)-6-oxo-1,6-dihydropyridin-3-yl]-3-(hydroxymethyl)pyridin-2-yl]-4,4-dimethyl-1,10-diazatricyclo[6.4.0.0^2,6]dodeca-2(6),7-dien-9-one] |  | 0.012
COCCN1CCn2nc(Nc3cc(-c4ccnc(N5CCn6c(cc7c6CC(C)(C)C7)C5=O)c4CO)nn(C)c3=O)cc2C1 [Example 305, 3-[3-(hydroxymethyl)-4-[5-[[5-(2-methoxyethyl)-6,7-dihydro-4H-pyrazolo[1,5-a]pyrazin-2-yl]amino]-1-methyl-6-oxo-pyridazin-3-yl]-2-pyridyl]-7,7-dimethyl-1,2,6,8-tetrahydrocyclopenta[3,4]pyrrolo[3,5-b]pyrazin-4-one] | 0.0832 | 
C[C@@H]1CN(c2ccc(Nc3cc(-c4ccnc(N5CCc6c(cc7n6CCCC7)C5=O)c4CO)cn(C)c3=O)nc2)[C@@H](C)CN1C1COC1 [Example 155, 2-{5-[5-((2S,5R)-2,5-Dimethyl-4-oxetan-3-yl-piperazin-1-yl)-pyridin-2-ylamino]-3′-hydroxymethyl-1-methyl-6-oxo-1,6-dihydro-[3,4′]bipyridinyl-2′-yl}-2,3,5,6,7,8-hexahydro-4H-2,4b-diaza-fluoren-1-one] |  | 0.0454
COCCN1CCn2nc(Nc3cc(-c4ccnc(N5CCn6c(cc7c6CC(C)(C)C7)C5=O)c4CO)cn(C)c3=O)cc2C1 [Example 296, 3-[3-(hydroxymethyl)-4-[5-[[5-(2-methoxyethyl)-6,7-dihydro-4H-pyrazolo[1,5-a]pyrazin-2-yl]amino]-1-methyl-6-oxo-3-pyridyl]-2-pyridyl]-7,7-dimethyl-1,2,6,8-tetrahydrocyclopenta[3,4]pyrrolo[3,5-b]pyrazin-4-one] | 0.0193 | 
Cn1cc(-c2ccnc(N3CCn4c(cc5c4CC(C)(C)C5)C3=O)c2CO)cc(Nc2ccc(C3CN(C4COC4)C3)cn2)c1=O [Example 272, 3-[3-(hydroxymethyl)-4-[1-methyl-5-[[5-[1-(oxetan-3-yl)azetidin-3-yl]-2-pyridyl]amino]-6-oxo-3-pyridyl]-2-pyridyl]-7,7-dimethyl-1,2,6,8-tetrahydrocyclopenta[3,4]pyrrolo[3,5-b]pyrazin-4-one] | 0.034 | 
Cc1cc(Nc2cc(-c3ccnc(N4CCn5c(cc6c5CCCC6)C4=O)c3CO)cn(C)c2=O)n[nH]1 [Example 115, 2-(3-(Hydroxymethyl)-4-(1-methyl-5-(5-methyl-1H-pyrazol-3-ylamino)-6-oxo-1,6-dihydropyridin-3-yl)pyridin-2-yl)-3,4,6,7,8,9-hexahydropyrazino[1,2-a]indol-1(2H)-one] |  | 0.286
Cn1cc(-c2nccc(N3CCn4c(cc5c4CCCC5)C3=O)c2CO)cc(Nc2ccc(N3CCN(C4COC4)CC3)cn2)c1=O [Example 104, 2-(3-(Hydroxymethyl)-2-(1-methyl-5-(5-(4-(oxetan-3-yl)piperazin-1-yl)pyridin-2-ylamino)-6-oxo-1,6-dihydropyridin-3-yl)pyridin-4-yl)-3,4,6,7,8,9-hexahydropyrazino[1,2-a]indol-1(2H)-one] |  | 0.793
COCc1cc(Nc2cc(-c3ccnc(N4CCn5c(cc6c5CC(C)(C)C6)C4=O)c3CO)cn(C)c2=O)nn1C [Example 316, 3-[3-(hydroxymethyl)-4-[5-[[5-(methoxymethyl)-1-methyl-pyrazol-3-yl]amino]-1-methyl-6-oxo-3-pyridyl]-2-pyridyl]-7,7-dimethyl-1,2,6,8-tetrahydrocyclopenta[3,4]pyrrolo[3,5-b]pyrazin-4-one] | 0.0202 | 
CN1CCn2nc(Nc3cc(-c4ccnc(N5CCn6c7c(c(F)c6C5=O)CCCC7)c4CO)cn(C)c3=O)cc2C1 [Example 135, 10-Fluoro-2-(3-(hydroxymethyl)-4-(1-methyl-5-(5-methyl-4,5,6,7-tetrahydropyrazolo[1,5-a]pyrazin-2-ylamino)-6-oxo-1,6-dihydropyridin-3-yl)pyridin-2-yl)-3,4,6,7,8,9-hexahydropyrazino[1,2-a]indol-1(2H)-one] |  | 0.107
Cn1cnc(Nc2cc(-c3ccnc(N4CCn5c(cc6c5CC(C)(C)C6)C4=O)c3CO)cn(C)c2=O)c1 [Example 268, 3-[3-(hydroxymethyl)-4-[1-methyl-5-[(1-methylimidazol-4-yl)amino]-6-oxo-3-pyridyl]-2-pyridyl]-7,7-dimethyl-1,2,6,8-tetrahydrocyclopenta[3,4]pyrrolo[3,5-b]pyrazin-4-one] | 0.212 | 
Cn1cc(-c2ccnc(N3CCn4c5c(c(F)c4C3=O)CCCC5)c2CO)cc(Nc2ccncn2)c1=O [Example 146, 10-Fluoro-2-(3-(hydroxymethyl)-4-(1-methyl-6-oxo-5-(pyrimidin-4-ylamino)-1,6-dihydropyridin-3-yl)pyridin-2-yl)-3,4,6,7,8,9-hexahydropyrazino[1,2-a]indol-1(2H)-one] |  | 0.0856
C[C@H]1CN(C2COC2)CCN1c1cnc(Nc2cc(-c3ccnc(N4CCn5c(cc6c5CCCC6)C4=O)c3CO)cn(C)c2=O)cn1 [Example 228, 2-[3-(hydroxymethyl)-4-[1-methyl-5-[[5-[(2S)-2-methyl-4-(oxetan-3-yl)piperazin-1-yl]pyrazin-2-yl]amino]-6-oxo-3-pyridyl]-2-pyridyl]-3,4,6,7,8,9-hexahydropyrazino[1,2-a]indol-1-one] | 0.369 | 
C[C@H]1CN(C2COC2)CCN1c1ccc(Nc2cc(-c3ccnc(N4CCc5c(cc6n5CCCC6)C4=O)c3CO)cn(C)c2=O)nc1 [Example 149, 2-{3′-Hydroxymethyl-1-methyl-5-[5-((S)-2-methyl-4-oxetan-3-yl-piperazin-1-yl)-pyridin-2-ylamino]-6-oxo-1,6-dihydro-[3,4′]bipyridinyl-2′-yl}-2,3,5,6,7,8-hexahydro-4H-2,4b-diaza-fluoren-1-one] |  | 0.0454
C[C@H]1CN(C2COC2)CCN1c1ccc(Nc2cc(-c3ccnc(N4CCn5c(cc6c5CC(F)(F)CC6)C4=O)c3CO)cn(C)c2=O)nc1 [Example 140, (S)-7,7-Difluoro-2-(3-(hydroxymethyl)-4-(1-methyl-5-(5-(2-methyl-4-(oxetan-3-yl)piperazin-1-yl)pyridin-2-ylamino)-6-oxo-1,6-dihydropyridin-3-yl)pyridin-2-yl)-3,4,6,7,8,9-hexahydropyrazino[1,2-a]indol-1(2H)-one] |  | 0.308
CC[C@H]1CN(C2COC2)CCN1c1ccc(Nc2cc(-c3ccnc(-n4ncc5c6c(sc5c4=O)CCCC6)c3CO)cn(C)c2=O)nc1 [Example 175, 3-{5-[5-((S)-2-Ethyl-4-oxetan-3-yl-piperazin-1-yl)-pyridin-2-ylamino]-3′-hydroxymethyl-1-methyl-6-oxo-1,6-dihydro-[3,4′]bipyridinyl-2′-yl}-6,7,8,9-tetrahydro-3H-benzo[4,5]thieno[2,3-d]pyridazin-4-one] |  | 0.0466
CC[C@H]1CN(C2COC2)CCN1c1ccc(Nc2cc(-c3ccnc(N4CCc5c(cc6n5CCCC6)C4=O)c3CO)cn(C)c2=O)nc1 [Example 161, 2-{5-[5-((S)-2-Ethyl-4-oxetan-3-yl-piperazin-1-yl)-pyridin-2-ylamino]-3′-hydroxymethyl-1-methyl-6-oxo-1,6-dihydro-[3,4′]bipyridinyl-2′-yl}-2,3,5,6,7,8-hexahydro-4H-2,4b-diaza-fluoren-1-one] |  | 0.064
CCc1nnc(Nc2cc(-c3ccnc(N4CCn5c(cc6c5CC(C)(C)C6)C4=O)c3CO)cn(C)c2=O)s1 [Example 332, 3-[4-[5-[(5-ethyl-1,3,4-thiadiazol-2-yl)amino]-1-methyl-6-oxo-3-pyridyl]-3-(hydroxymethyl)-2-pyridyl]-7,7-dimethyl-1,2,6,8-tetrahydrocyclopenta[3,4]pyrrolo[3,5-b]pyrazin-4-one] | 0.0919 | 
C[C@@H]1CN(C2COC2)CCN1c1ccc(Nc2cc(-c3ccnc(N4CCn5c(cc6c5CCCC6)C4=O)c3CO)cn(C)c2=O)nc1 [Example 137, (R)-2-(3-(hydroxymethyl)-4-(1-methyl-5-(5-(2-methyl-4-(oxetan-3-yl)piperazin-1-yl)pyridin-2-ylamino)-6-oxo-1,6-dihydropyridin-3-yl)pyridin-2-yl)-3,4,6,7,8,9-hexa-hydropyrazino[1,2-a]indol-1(2H)-one] |  | 0.0646
CCn1nc(Nc2cc(-c3ccnc(N4CCn5c(cc6c5CC(C)(C)C6)C4=O)c3CO)cn(C)c2=O)cc1C [Example 252, 3-[4-[5-[(1-ethyl-5-methyl-pyrazol-3-yl)amino]-1-methyl-6-oxo-3-pyridyl]-3-(hydroxymethyl)-2-pyridyl]-7,7-dimethyl-1,2,6,8-tetrahydrocyclopenta[3,4]pyrrolo[3,5-b]pyrazin-4-one] | 0.252 | 
